Experimental data: ChEMBL document CHEMBL1146798, “QSAR of adenosine receptor antagonists. Part 3: Exploring physicochemical requirements for selective binding of 1,2,4-triazolo[5,1-i]purine derivatives with human adenosine A3 receptor subtype” (Bioorg Med Chem Lett, 2004)

Experiment: Partition coefficient (logP)
Assay type: physicochemical
Settings: octanol/water

| SMILES | logP |
| --- | --- |
| CCCCc1nc2nc[nH]c2c2nc(-c3ccc(Cl)cc3)nn12 | 4.78 |
| CCCCCc1nc2nc[nH]c2c2nc(-c3ccccc3)nn12 | 4.64 |
| CCCCc1nc2[nH]cnc2c2nc(-c3ccccc3)nn12 | 4.23 |
| CCCCc1nc2[nH]cnc2c2nc(-c3ccc(C(C)(C)C)cc3)nn12 | 5.93 |
| CCCCc1nc2nc[nH]c2c2nc(-c3cccc(Cl)c3)nn12 | 4.78 |
| CCCCc1nc2[nH]cnc2c2nc(-c3cccc(C)c3)nn12 | 4.71 |
| CCCCc1nc2nc[nH]c2c2nc(-c3ccc(OCC)cc3)nn12 | 4.44 |
| CCCCc1nc2[nH]cnc2c2nc(Cc3ccccc3)nn12 | 4.33 |
| CCCCc1nc2nc[nH]c2c2nc(-c3ccc(SC)cc3)nn12 | 4.66 |
| CCCCc1nc2nc[nH]c2c2nc(-c3ccc(Br)cc3)nn12 | 5.05 |
| CCCCc1nc2[nH]cnc2c2nc(-c3cccc(OC)c3)nn12 | 4.1 |
| CCCCc1nc2[nH]cnc2c2nc(-c3cccnc3)nn12 | 2.89 |
| CCCCCCc1nc2nc[nH]c2c2nc(-c3ccccc3)nn12 | 5.06 |
| CCCCc1nc2[nH]cnc2c2nc(C)nn12 | 2.57 |
| CCCCc1nc2nc[nH]c2c2nc(-c3ccc(-c4ccccc4)cc3)nn12 | 5.9 |
| CCCCc1nc2nc[nH]c2c2nc(-c3ccc(O)cc3)nn12 | 3.84 |
| CCCCc1nc2[nH]cnc2c2nc(-c3ccc(N(C)C)cc3)nn12 | 4.51 |
| CCCc1nc2nc[nH]c2c2nc(-c3ccccc3)nn12 | 3.81 |
| CCCCc1nc2[nH]cnc2c2nc(-c3ccc(C(F)(F)F)cc3)nn12 | 5.15 |
| CCCCc1nc2nc[nH]c2c2nc(-c3ccccc3Cl)nn12 | 4.78 |
| CCCCc1nc2[nH]cnc2c2nc(-c3ccco3)nn12 | 2.84 |
| CCc1nc2[nH]cnc2c2nc(-c3ccccc3)nn12 | 3.39 |
| c1ccc(-c2nc3c4nc[nH]c4nc(-c4ccccc4)n3n2)cc1 | 4.2 |
| CCCCc1nc2[nH]cnc2c2nc(-c3ccc(OC)cc3)nn12 | 4.1 |
| CCCCc1nc2[nH]cnc2c2nc(-c3ccc(C)cc3)nn12 | 4.71 |
| CCCCc1nc2nc[nH]c2c2nc(-c3ccc(F)cc3)nn12 | 4.38 |
| CCCCc1nc2[nH]cnc2c2nc(-c3cc(OC)c(OC)c(OC)c3)nn12 | 3.85 |
| CCCCc1nc2[nH]cnc2c2nc(-c3ccc(OCCC)cc3)nn12 | 4.92 |
| Cc1nc2[nH]cnc2c2nc(-c3ccccc3)nn12 | 2.82 |
